The target in assay [1] is T1, KRas^G12D (Homo sapiens, UniProt P01116, G12D).
T1 construct: Biotinylated KRas (corresponding to amino acids 1-169, produced at Accelegan Inc.); biotin (biotinylated); purchased Accelegan Inc
The assay can be described thus: KRas binding assay (TR-FRET tracer displacement), KRas G12D. (In general: TR-FRET usually uses a lanthanide donor and a delayed reading to cut background.)

For assay [2], the system named is KRas-mediated phosphorylation of ERK in A549 cells. Briefly: Inhibition of KRas-mediated phosphorylation of ERK (Cisbio HTRF pERK), A549 cells. The format is cell-based. Particulars: Homo sapiens, A549, 3 h, single point, 100 nM compound, 3 hrs. The essentials:
(§1)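 Cells were seeded at 6,000 per well and treated for 3 hrs with compound in a 10-dose, 3-fold series from 10 uM (0.8% final DMSO), with 0.2 uM Trametinib as Min control. Lysates made at 4° C over 40 mins were incubated 2 hrs at room temperature with d2- and Cryptate-labelled antibodies, then read by HTRF.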

Assay [3] deals with T2, KRas^G12R (Homo sapiens, UniProt P01116, G12R).
T2 construct: Biotinylated KRas (corresponding to amino acids 1-169, produced at Accelegan Inc.); biotin (biotinylated); purchased Accelegan Inc
The assay can be described thus: KRas binding assay (TR-FRET tracer displacement), KRas G12R.

The test system of assay [4] is KRas-mediated phosphorylation of ERK in HCT116 cells. The assay can be described thus: Inhibition of KRas-mediated phosphorylation of ERK (Cisbio HTRF pERK), HCT116 cells. The format is cell-based. The conditions noted are these: Homo sapiens, HCT-116, 3 h, single point, 100 nM compound, 3 hrs. Put shortly: as §1
For assay [5], the system named is KRas-mediated phosphorylation of ERK in AsPC-1 cells. Briefly: Inhibition of KRas-mediated phosphorylation of ERK (Cisbio HTRF pERK), AsPC-1 cells. The format is cell-based. The conditions noted are these: Homo sapiens; for IC50: ASPC1, AsPC-1 cells, HTRF pERK; for inhibition at 0.1 µM: ASPC1, 3 h, single point, 100 nM compound, 3 hrs, AsPC-1 cells. The essentials: (§2)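 Compound treatment lasts 3 hrs on 6,000 seeded cells, testing 10 doses from a 10 uM top concentration in 3-fold decrements at 0.8% final DMSO. Trametinib at 0.2 uM defines the Min signal. Detection is HTRF on cold-lysed cell extracts.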

The test system of assay [6] is KRas-mediated phosphorylation of ERK in H358 cells. The assay can be described thus: Inhibition of KRas-mediated phosphorylation of ERK (Cisbio HTRF pERK), H358 cells. It counts as cell-based. The conditions noted are these: Homo sapiens, NCI-H358, 3 h, single point, 100 nM compound, 3 hrs. The essentials:
as §2

For assay [7], the target named is T3, KRas^G12V (Homo sapiens, UniProt P01116, G12V).
T3 construct: Biotinylated KRas (corresponding to amino acids 1-169, produced at Accelegan Inc.); biotin (biotinylated); purchased Accelegan Inc
The assay can be described thus: KRas binding assay (TR-FRET tracer displacement), KRas G12V.

Assay [8] relates to KRas-mediated phosphorylation of ERK in H727 cells. Briefly: Inhibition of KRas-mediated phosphorylation of ERK (Cisbio HTRF pERK), H727 cells. The format is cell-based. The conditions noted are these: Homo sapiens; for IC50: NCI-H727, H727 cells, HTRF pERK; for inhibition at 0.1 µM: NCI-H727, 3 h, single point, 100 nM compound, 3 hrs, H727 cells. Put shortly:
as §2

Assay [9] concerns KRas-mediated phosphorylation of ERK in H460 cells. Briefly: Inhibition of KRas-mediated phosphorylation of ERK (Cisbio HTRF pERK), H460 cells. It counts as cell-based. Particulars: Homo sapiens, NCI-H460, 3 h, single point, 100 nM compound, 3 hrs. Put shortly: as §2

Where only a bound is given, the exact number is not on record here.

T1 sequence (P01116 1-169 isoform P01116-2 G12D): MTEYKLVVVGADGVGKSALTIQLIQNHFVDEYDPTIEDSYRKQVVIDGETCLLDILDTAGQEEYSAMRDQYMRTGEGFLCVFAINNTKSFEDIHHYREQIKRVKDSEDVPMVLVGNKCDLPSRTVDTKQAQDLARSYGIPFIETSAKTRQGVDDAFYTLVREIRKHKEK
T3 sequence (P01116 1-169 isoform P01116-2 G12V): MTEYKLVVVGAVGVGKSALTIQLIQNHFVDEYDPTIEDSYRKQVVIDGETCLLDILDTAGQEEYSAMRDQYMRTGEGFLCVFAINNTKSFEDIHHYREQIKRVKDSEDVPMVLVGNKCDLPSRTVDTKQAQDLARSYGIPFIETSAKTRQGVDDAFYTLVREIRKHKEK
T2 sequence (P01116 1-169 isoform P01116-2 G12R): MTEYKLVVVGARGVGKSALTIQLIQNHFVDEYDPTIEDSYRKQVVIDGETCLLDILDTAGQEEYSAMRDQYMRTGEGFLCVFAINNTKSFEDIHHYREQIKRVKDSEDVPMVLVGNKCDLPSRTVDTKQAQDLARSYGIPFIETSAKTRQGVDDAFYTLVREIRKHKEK

For the compound `CCc1c(F)ccc2cc(O)cc(-c3ncc4c(N5CCC[C@@](C)(O)C5)nc(OCC56CNCC5C6)nc4c3F)c12` (stereo partly drawn) [Example 695, (3R)-1-(2-((3-azabicyclo[3.1.0]hexan-1-yl)methoxy)-7-(8-ethyl-7-fluoro-3-hydroxynaphthalen-1-yl)-8-fluoropyrido[4,3-d]pyrimidin-4-yl)-3-methylpiperidin-3-ol], the concentration for half-maximal inhibition (IC50) (in general, the concentration that inhibits the measured activity by half) in assay [1] was determined as 4 nM; in assay [3], 8 nM; in [5] it was 1110 nM; in assay [7], 5 nM; in assay [8], 2690 nM. Besides, the inhibition (usually the drop in the measured response relative to a control, in per cent) at 0.1 µM is 16% in assay [2], 13% in assay [4], -1% in [6] and -2% in assay [9].
With `CCc1c(F)ccc2cc(O)cc(-c3ncc4c(N5CCC[C@@](C)(O)C5)nc(OCC56CNCCC5C6)nc4c3F)c12` (stereo partly drawn) [Example 697, (3R)-1-(2-((3-azabicyclo[4.1.0]heptan-1-yl)methoxy)-7-(8-ethyl-7-fluoro-3-hydroxynaphthalen-1-yl)-8-fluoropyrido[4,3-d]pyrimidin-4-yl)-3-methylpiperidin-3-ol], the IC50 in [1] came to 4 nM; in [3], 7 nM; in assay [5] it was 1860 nM; in [7], 6 nM; in assay [8], 4750 nM. The inhibition at 0.1 µM is -4% in assay [2], 1% in assay [4], 5% in assay [6] and 19% in [9].
With `CCc1c(F)ccc2cc(O)cc(-c3ncc4c(N5CCC[C@@](C)(O)C5)nc(OCC56CC5CCN(C)C6)nc4c3F)c12` (stereo partly drawn) [Example 701, (3R)-1-(7-(8-ethyl-7-fluoro-3-hydroxynaphthalen-1-yl)-8-fluoro-2-((3-methyl-3-azabicyclo[4.1.0]heptan-1-yl)methoxy)pyrido[4,3-d]pyrimidin-4-yl)-3-methylpiperidin-3-ol], the IC50 in assay [1] is 4 nM; in assay [3], 9 nM; in assay [5], 101 nM; in [7], 5 nM; in [8], 476 nM. Moreover, the inhibition at 0.1 µM in [2] was found to be 20%; in assay [4] it was 0%; in assay [6], 6%; in [9] it was 15%.
In the case of `CCc1c(F)ccc2cc(O)cc(-c3ncc4c(N5CCC[C@@](C)(O)C5)nc(OCC5(CN(C)C)CC5CC)nc4c3F)c12` (stereo partly drawn) [Example 703, (3R)-1-(2-((1-((dimethylamino)methyl)-2-ethylcyclopropyl)methoxy)-7-(8-ethyl-7-fluoro-3-hydroxynaphthalen-1-yl)-8-fluoropyrido[4,3-d]pyrimidin-4-yl)-3-methylpiperidin-3-ol], the IC50 in assay [1] was determined as 5 nM; in [3], 14 nM; in [5] it was 342 nM; in assay [7], 7 nM; in [8], 982 nM. Further, the inhibition at 0.1 µM in assay [2] is 47%; in [4], 0%; in assay [6], -10%; in [9], 4%.
With `CCc1c(F)ccc2cc(O)cc(-c3ncc4c(N5CCC[C@@](C)(O)C5)nc(OCC5(CN(C)C)CC5(C)C)nc4c3F)c12` (stereo partly drawn) [Example 704, (3R)-1-(2-((1-((dimethylamino)methyl)-2,2-dimethylcyclopropyl)methoxy)-7-(8-ethyl-7-fluoro-3-hydroxynaphthalen-1-yl)-8-fluoropyrido[4,3-d]pyrimidin-4-yl)-3-methylpiperidin-3-ol], the IC50 in [1] was 5 nM; in assay [3] it was 11 nM; in assay [5], 53 nM; in [7], 5 nM; in [8], 223 nM. Moreover, the inhibition at 0.1 µM in assay [2] was 26%; in [4], 19%; in [5], 25%; in assay [6] it was 47%; in assay [8], 21%; in assay [9] it was 40%.
As to `CCc1c(F)ccc2cc(O)cc(-c3ncc4c(N5CCC[C@@](C)(O)C5)nc(OCC5(CN(C)C)CC56CCC6)nc4c3F)c12` (stereo partly drawn) [Example 705, (3R)-1-[2-[[2-[(dimethylamino)methyl]spiro[2.3]hexan-2-yl]methoxy]-7-(8-ethyl-7-fluoro-3-hydroxy-1-naphthyl)-8-fluoro-pyrido[4,3-d]pyrimidin-4-yl]-3-methyl-piperidin-3-ol], the IC50 in [1] amounted to 12 nM; in [3], 30 nM; in [5], 598 nM; in assay [7], 13 nM; in assay [8] it was 1220 nM. The inhibition at 0.1 µM in assay [2] is 29%; in assay [4], -3%; in assay [5], 6%; in assay [6] it was 34%; in [8] it was 3%; in [9], 0%.
On to `CCc1c(F)ccc2c(F)c(O)cc(-c3ncc4c(N5C[C@@H]6C[C@H](C5)[C@H](O)C6)nc(OC[C@@]56CCCN5C[C@H](F)C6)nc4c3F)c12` [Example 778, (1R,5R,6R)-3-(7-(8-ethyl-4,7-difluoro-3-hydroxynaphthalen-1-yl)-8-fluoro-2-(((2R,7aS)-2-fluorohexahydro-1H-pyrrolizin-7a-yl)methoxy)pyrido[4,3-d]pyrimidin-4-yl)-3-azabicyclo[3.2.1]octan-6-ol], for which the half-inhibitory concentration (IC50) in assay [1] is 6 nM; in assay [3] it was 4 nM; in assay [5], 84 nM; in [7] it was < 2 nM; in assay [8], 45 nM. Moreover, the inhibition at 0.1 µM in assay [2] was 69%; in [4], 49%; in assay [5], 16%; in assay [6] it was 64%; in assay [8], 36%; in [9], 74%.
`CCc1c(F)ccc2cc(O)cc(-c3ncc4c(N5Cc6n[nH]c(CO)c6C5)nc(OC[C@@]56CCCN5C[C@H](F)C6)nc4c3F)c12` [Example 785, 5-ethyl-6-fluoro-4-(8-fluoro-2-(((2R,7aS)-2-fluorohexahydro-1H-pyrrolizin-7a-yl)methoxy)-4-(3-(hydroxymethyl)pyrrolo[3,4-c]pyrazol-5 (2H,4H,6H)-yl)pyrido[4,3-d]pyrimidin-7-yl)naphthalen-2-ol]: the IC50 was 1300 nM in assay [1], 787 nM in assay [3], 435 nM in assay [7] and > 10000 nM in [8]. Moreover, the inhibition at 0.1 µM was 8% in assay [2]; 5% in assay [4]; -6% in assay [5]; 9% in assay [6]; 2% in [8]; 0% in assay [9].
Turning to `Cc1c(O)cc2ccccc2c1-c1ncc2c(N3C[C@@H]4C[C@H](C3)[C@H](O)C4)nc(OC[C@@]34CCCN3C[C@H](F)C4)nc2c1F` [Example 786, (1R,5R,6R)-3-(8-fluoro-2-(((2R,7aS)-2-fluorohexahydro-1H-pyrrolizin-7a-yl)methoxy)-7-(3-hydroxy-2-methylnaphthalen-1-yl)pyrido[4,3-d]pyrimidin-4-yl)-3-azabicyclo[3.2.1]octan-6-ol], the IC50 was 423 nM in assay [1]; 160 nM in assay [3]; 4960 nM in [5]; 110 nM in assay [7]; 2820 nM in [8]. Besides, the inhibition at 0.1 µM was 19% in assay [2]; 0% in assay [4]; 1% in assay [5]; -3% in assay [6]; 15% in assay [8]; 8% in assay [9].
